Data on two compounds can be found in patent US8552033B2, “Inhibitors of CXCR2” (SANOFI, priority 2006, dated 2013).

The target in the experiment is human CXCR2 (Homo sapiens (Human), UniProt P25025). As to the kind of experiment: CXCR2 inhibition: calcium fluorescence assay (FLIPR). The settings on record: chemokine IL-8; CHO-K1 cells stably transfected with human CXCR2 and Gα16; Fluo-4 calcium response. It counts as cell-based. From the text:
Determination of CXCR2 Inhibition: Calcium Fluorescence Assay (FLIPR)
The assay is based on the detection of intracellular calcium changes detected by the selective, calcium-chelating dye, Fluo-4 (Molecular Probes). A large fluorescence intensity increase is observed upon calcium association with Fluo-4. The dye is delivered to the cell interior using an acetoxymethylester form of Fluo-4, where the intracellular esterase activity results in the charged species being released and trapped within the cytoplasm of the cell. […] By co-expressing the CXCR2 receptor and the promiscuous Gα16 protein, activation of this chemokine receptor is directed into this phospholipase C cascade resulting in intracellular calcium mobilization.
The CHO-K1 cells stably transfected with human CXCR2 and the promiscuous Gα16 protein were maintained in a log phase of growth at 37° C. and 5% CO2 in the following media: Iscove's, 10% FBS, 1× Penicillin-Streptomycin, 400 μg/mL G418 and 350 μg/mL Zeocin. Approximately 24-48 hours prior to the assay, 20,000-30,000 cells/well were plated onto a 96-well black/clear bottomed assay plate (Becton Dickinson) with a well volume of 180 μl. […] The IC50 value of a compound was determined by calculation of % inhibition of total calcium response to the chemokine.

Chain of human CXCR2 (P25025 whole entry): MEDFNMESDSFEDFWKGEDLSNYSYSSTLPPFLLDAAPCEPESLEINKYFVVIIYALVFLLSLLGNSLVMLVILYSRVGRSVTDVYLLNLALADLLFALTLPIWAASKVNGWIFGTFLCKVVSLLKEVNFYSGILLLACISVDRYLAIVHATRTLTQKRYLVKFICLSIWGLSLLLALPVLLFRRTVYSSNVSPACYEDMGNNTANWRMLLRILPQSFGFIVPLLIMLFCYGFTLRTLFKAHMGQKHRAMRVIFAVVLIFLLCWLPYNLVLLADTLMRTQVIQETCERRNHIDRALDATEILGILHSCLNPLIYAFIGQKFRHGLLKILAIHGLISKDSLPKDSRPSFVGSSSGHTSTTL

`CCC(NC(=O)c1ccc2ccccc2c1OCc1ccc(C(F)(F)F)cc1)(C(=O)O)c1ccccc1` (centres unmarked) [Example 10, 2-Phenyl-2-{[1-(4-trifluoromethyl-benzyloxy)-naphthalene-2-carbonyl]-amino}-butyric acid]: the IC50 is 2.2 µM. Next, `O=C(NC1(C(=O)O)CCOCC1)c1cc(F)c2ccccc2c1OCc1ccc(SC(F)(F)F)cc1` [Example 12, 4-{[4-Fluoro-1-(4-trifluoromethylsulfanyl-benzyloxy)-naphthalene-2-carbonyl]-amino}-tetrahydro-pyran-4-carboxylic acid]: 6 µM.
